# Assay results published in publication PMC11775380, “Discovery of Novel Nav1.7-Selective Inhibitors with the 1H-Indole-3-Propionamide Scaffold for Effective Pain Relief” (Research, 2025).
# What was measured:
# Type in all cases: cell-based
# Nav1.7 T1544A = target: T1, Nav1.7 T1544A (Homo sapiens, UniProt Q15858, T1544A); experiment: Single site-directed mutagenesis, inhibition by patch clamp; conditions: 1 μM
# T1 construct: expressed in transfected cells; host or cells: HEK293T
# Protocol: (§1) The amino acids depicted in Fig. 4C were individually mutated to alanine or glycine to perform single site-directed mutagenesis. Subsequently, the inhibition rates of these mutations against WN2-R were measured at a concentration of 1 μM (Fig. 4D). […] While single site-directed mutagenesis did affect the antagonistic activity of WN2-R, it did so to a limited extent, as the presumed induced-fit effect typically arises from the concerted movement of multiple residues.
# (§2) Whole-cell patch-clamp recordings were conducted at 25 ± 2 °C, utilizing an EPC 10USB patch-clamp amplifier (HEKA Elektronik, Lambrecht, Germany). Pipettes, with access resistance between 2.0 and 3.0 MΩ, were pulled from borosilicate glass capillary tubes using a 2-step vertical microelectrode puller (PC-10, Narishige Group, Tokyo, Japan). Voltage-clamp recordings were obtained with PatchMaster software v2 × 73 (HEKA Elektronik) 5 min after establishing whole-cell configuration, sampled at 20 kHz, and filtered at 5 kHz. To minimize voltage errors, 80% series resistance compensation was applied. Pipettes were filled with 140 mM CsF, 10 mM NaCl, 1 mM EGTA, and 10 mM HEPES (pH=7.4, adjusted with CsOH). The external solution contained 140 mM NaCl, 2 mM CaCl2, 1 mM MgCl2, 5 mM KCl, 10 mM HEPES, and 10 mM glucose (pH=7.4, adjusted with NaOH). IC50 values were determined in HEK293T or ND7/23 cell lines by voltage clamping at −80 mV, followed by stepping to the V1/2 of inactivation for 8 s to facilitate compound binding.
# Nav1.7 A1596G = target: T2, Nav1.7 A1596G (Homo sapiens, UniProt Q15858, A1596G); experiment: as above; conditions: 1 μM
# T2 construct: expressed in transfected cells; host or cells: HEK293T
# T2 sequence (Q15858 whole entry A1596G): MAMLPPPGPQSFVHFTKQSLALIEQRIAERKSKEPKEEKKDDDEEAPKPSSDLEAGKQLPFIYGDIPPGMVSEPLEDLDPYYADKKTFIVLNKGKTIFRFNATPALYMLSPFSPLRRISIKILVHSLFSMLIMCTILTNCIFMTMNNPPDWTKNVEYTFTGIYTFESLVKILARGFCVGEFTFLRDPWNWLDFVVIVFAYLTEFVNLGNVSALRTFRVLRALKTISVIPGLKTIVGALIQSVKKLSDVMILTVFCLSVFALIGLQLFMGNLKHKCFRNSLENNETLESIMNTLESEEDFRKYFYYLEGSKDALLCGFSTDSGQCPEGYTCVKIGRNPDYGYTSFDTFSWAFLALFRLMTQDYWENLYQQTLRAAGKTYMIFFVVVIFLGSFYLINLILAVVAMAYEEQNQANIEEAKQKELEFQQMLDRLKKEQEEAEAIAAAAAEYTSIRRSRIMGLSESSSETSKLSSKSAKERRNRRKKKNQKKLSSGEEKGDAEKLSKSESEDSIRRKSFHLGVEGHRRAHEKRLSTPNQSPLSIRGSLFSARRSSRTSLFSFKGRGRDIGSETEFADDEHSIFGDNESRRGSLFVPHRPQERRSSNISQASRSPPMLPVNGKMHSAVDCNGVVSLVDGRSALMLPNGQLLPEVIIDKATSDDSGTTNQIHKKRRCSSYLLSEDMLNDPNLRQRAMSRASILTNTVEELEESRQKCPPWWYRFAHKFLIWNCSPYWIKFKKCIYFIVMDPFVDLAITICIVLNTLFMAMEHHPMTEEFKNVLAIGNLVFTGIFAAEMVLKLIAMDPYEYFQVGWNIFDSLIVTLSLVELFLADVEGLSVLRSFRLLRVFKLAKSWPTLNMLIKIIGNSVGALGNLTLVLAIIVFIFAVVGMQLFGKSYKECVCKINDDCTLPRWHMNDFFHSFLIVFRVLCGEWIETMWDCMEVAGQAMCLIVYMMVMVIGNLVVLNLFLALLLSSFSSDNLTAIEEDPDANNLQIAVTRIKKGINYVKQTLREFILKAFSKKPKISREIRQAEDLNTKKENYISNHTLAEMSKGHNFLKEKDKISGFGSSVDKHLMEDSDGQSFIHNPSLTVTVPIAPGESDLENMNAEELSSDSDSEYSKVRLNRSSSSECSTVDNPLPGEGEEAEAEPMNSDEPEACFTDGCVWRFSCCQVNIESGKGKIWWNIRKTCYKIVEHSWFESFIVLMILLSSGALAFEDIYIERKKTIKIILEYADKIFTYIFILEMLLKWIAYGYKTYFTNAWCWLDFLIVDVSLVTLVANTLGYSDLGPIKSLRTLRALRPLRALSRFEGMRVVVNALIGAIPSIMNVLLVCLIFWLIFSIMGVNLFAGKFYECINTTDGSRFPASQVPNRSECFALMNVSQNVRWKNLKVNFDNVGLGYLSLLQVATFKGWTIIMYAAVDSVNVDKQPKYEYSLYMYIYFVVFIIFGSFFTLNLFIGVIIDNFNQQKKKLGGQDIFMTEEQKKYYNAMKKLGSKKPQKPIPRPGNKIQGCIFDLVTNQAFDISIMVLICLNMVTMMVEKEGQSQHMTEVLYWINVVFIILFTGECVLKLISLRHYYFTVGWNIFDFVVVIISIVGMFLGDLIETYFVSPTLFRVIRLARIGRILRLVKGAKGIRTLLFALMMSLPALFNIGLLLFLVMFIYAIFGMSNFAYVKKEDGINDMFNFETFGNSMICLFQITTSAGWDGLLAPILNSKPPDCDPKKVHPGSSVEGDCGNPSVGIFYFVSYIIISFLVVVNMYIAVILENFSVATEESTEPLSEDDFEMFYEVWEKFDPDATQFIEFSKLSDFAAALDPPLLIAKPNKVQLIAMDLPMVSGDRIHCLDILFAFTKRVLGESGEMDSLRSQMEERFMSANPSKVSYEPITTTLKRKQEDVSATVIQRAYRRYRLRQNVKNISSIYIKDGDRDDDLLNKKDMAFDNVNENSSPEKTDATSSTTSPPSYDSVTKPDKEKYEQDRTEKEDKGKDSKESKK
# T2 sequence (Q07699 19-218 partner): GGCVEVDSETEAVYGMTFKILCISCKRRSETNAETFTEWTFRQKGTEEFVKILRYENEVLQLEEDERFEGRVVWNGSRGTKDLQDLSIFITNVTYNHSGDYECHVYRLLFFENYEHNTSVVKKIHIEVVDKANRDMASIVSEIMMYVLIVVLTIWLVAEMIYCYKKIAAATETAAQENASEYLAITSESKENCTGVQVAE
# T2 sequence (O60939 30-215 partner): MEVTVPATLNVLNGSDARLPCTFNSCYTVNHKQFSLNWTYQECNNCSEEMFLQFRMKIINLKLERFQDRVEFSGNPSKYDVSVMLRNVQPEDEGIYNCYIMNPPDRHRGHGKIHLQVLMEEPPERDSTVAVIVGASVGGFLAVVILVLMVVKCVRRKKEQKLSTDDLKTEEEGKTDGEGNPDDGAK
# Protocol: as §1, §2
# Nav1.7 F1609A = target: T3, Nav1.7 F1609A (Homo sapiens, UniProt Q15858, F1609A); experiment: as above; conditions: 1 μM
# T3 construct: expressed in transfected cells; host or cells: HEK293T
# T3 sequence (Q15858 whole entry F1609A): as the sequence (Q15858 whole entry A1596G) above, with G1596A, F1609A counted along it
# T3 sequence (Q07699 19-218 partner): as the sequence (Q07699 19-218 partner) above
# T3 sequence (O60939 30-215 partner): as the sequence (O60939 30-215 partner) above
# Protocol: as §1, §2
# Nav1.7 N1551A = target: T4, Nav1.7 N1551A (Homo sapiens, UniProt Q15858, N1551A); experiment: as above; conditions: 1 μM
# T4 construct: expressed in transfected cells; host or cells: HEK293T
# T4 sequence (Q15858 whole entry N1551A): as the sequence (Q15858 whole entry A1596G) above, with N1551A, G1596A counted along it
# T4 sequence (Q07699 19-218 partner): as the sequence (Q07699 19-218 partner) above
# T4 sequence (O60939 30-215 partner): as the sequence (O60939 30-215 partner) above
# Protocol: as §1, §2
# Nav1.7 I1612A = target: T5, Nav1.7 I1612A (Homo sapiens, UniProt Q15858, I1612A); experiment: as above; conditions: 1 μM
# T5 construct: expressed in transfected cells; host or cells: HEK293T
# T5 sequence (Q15858 whole entry I1612A): as the sequence (Q15858 whole entry A1596G) above, with G1596A, I1612A counted along it
# T5 sequence (Q07699 19-218 partner): as the sequence (Q07699 19-218 partner) above
# T5 sequence (O60939 30-215 partner): as the sequence (O60939 30-215 partner) above
# Protocol: as §1, §2
# Nav1.7 R1613A = target: T6, Nav1.7 R1613A (Homo sapiens, UniProt Q15858, R1613A); experiment: as above; conditions: 1 μM
# T6 construct: expressed in transfected cells; host or cells: HEK293T
# T6 sequence (Q15858 whole entry R1613A): as the sequence (Q15858 whole entry A1596G) above, with G1596A, R1613A counted along it
# T6 sequence (Q07699 19-218 partner): as the sequence (Q07699 19-218 partner) above
# T6 sequence (O60939 30-215 partner): as the sequence (O60939 30-215 partner) above
# Protocol: as §1, §2
# Nav1.7 Y1548A = target: T7, Nav1.7 Y1548A (Homo sapiens, UniProt Q15858, Y1548A); experiment: as above; conditions: 1 μM
# T7 construct: expressed in transfected cells; host or cells: HEK293T
# T7 sequence (Q15858 whole entry Y1548A): as the sequence (Q15858 whole entry A1596G) above, with Y1548A, G1596A counted along it
# T7 sequence (Q07699 19-218 partner): as the sequence (Q07699 19-218 partner) above
# T7 sequence (O60939 30-215 partner): as the sequence (O60939 30-215 partner) above
# Protocol: as §1, §2
# Nav1.7 M1593A = target: T8, Nav1.7 M1593A (Homo sapiens, UniProt Q15858, M1593A); experiment: as above; conditions: 1 μM
# T8 construct: expressed in transfected cells; host or cells: HEK293T
# T8 sequence (Q15858 whole entry M1593A): as the sequence (Q15858 whole entry A1596G) above, with M1593A, G1596A counted along it
# T8 sequence (Q07699 19-218 partner): as the sequence (Q07699 19-218 partner) above
# T8 sequence (O60939 30-215 partner): as the sequence (O60939 30-215 partner) above
# Protocol: as §1, §2
# [1] = test system: native Na+ current (Nav channels) in DRG neurons; experiment: Voltage-clamp recording of native Na+ current in DRG neurons; conditions: 10 μM; mouse DRG neurons
# Protocol: To investigate the mechanism of action of WN2-R and facilitate animal model experiments, we used voltage-clamp recording to test the effects of WN2-R on the native Na^+-, K^+-, and Ca^2+-mediated currents in DRG neurons. […] Furthermore, the effects of WN2-R on membrane excitability were examined in small (<30 μm) DRG neurons from mice using current-clamp recordings.
# DRG isolation and culture were performed according to our previous report. Briefly, C57BL/6 mice (weight 18 to 20 g, 6 to 8 weeks) were euthanized via cervical dislocation under anesthesia. Lumbar DRGs were isolated from the L4 to L5 segments of the lumbar spinal cord. The DRG neurons were subsequently dissociated through enzymatic digestion with collagenase (0.32 mg/ml) and trypsin (0.15 mg/ml) at 37 °C for 30 min, with intermittent shaking. After centrifugation at 800 rpm for 5 min at room temperature, the cells were seeded onto poly-L-lysine-coated coverslips and cultured in DMEM (Gibco) supplemented with 10% fetal bovine serum (Gibco). […]
# For recording Nav currents of DRG neurons, the bath solution contains (in mM) 30 NaCl, 1 MgCl2, 1.8 CaCl2, 5 CsCl, 5 KCl, 25 D-glucose, 5 HEPES, 0.1 CdCl2, and TEA-Cl (pH 7.4 with NaOH), and the pipette solution contains (in mM) 135 CsCl, 10 NaCl, and 5 HEPES (pH 7.4 with CsOH). The Nav current program is recorded following the above method. […]
# Nav1.7 E1545A/E1600A = target: T9, Nav1.7 E1545A/E1600A (Homo sapiens, UniProt Q15858, E1545A/E1600A); experiment: Multiple site-directed mutagenesis, inhibition by patch clamp; conditions: 1 μM
# T9 construct: expressed in transfected cells; host or cells: HEK293T
# T9 sequence (Q15858 whole entry E1545A/E1600A): as the sequence (Q15858 whole entry A1596G) above, with E1545A, G1596A, E1600A counted along it
# T9 sequence (Q07699 19-218 partner): as the sequence (Q07699 19-218 partner) above
# T9 sequence (O60939 30-215 partner): as the sequence (O60939 30-215 partner) above
# From the text: To further investigate the roles of these residues in WN2-R binding, 3 combinations of double or triple site-directed mutagenesis were introduced, including Y1548A/F1609A (to investigate the function of phenyl ring-containing residues surrounding WN2-R, Fig. 4E), E1545A/E1600A (to examine the importance of negatively charged residues at the binding site entrance, Fig. 4F), and Y1548A/V1552A/M1593A (to understand the role of the outer hydrophobic wall formed by these residues in ligand binding, Fig. 4G).
# as §2
# T1 sequence (Q15858 whole entry T1544A): as the sequence (Q15858 whole entry A1596G) above, with T1544A, G1596A counted along it
# T1 sequence (Q07699 19-218 partner): as the sequence (Q07699 19-218 partner) above
# T1 sequence (O60939 30-215 partner): as the sequence (O60939 30-215 partner) above
structure (smiles),measurement,setting,value
Cc1ccc(Cn2cc([C@H](CC(=O)NCCN(C)C)c3ccc(F)cc3)c3ccccc32)cc1 [WN2-R],Inhibition rate on the mutant relative to wild type,Nav1.7 T1544A,60.7 % of WT
same,Effect of the mutation on antagonistic activity,Nav1.7 A1596G,exerted an influence
same,Effect of the mutation on antagonistic activity,Nav1.7 F1609A,minimal impact
same,Inhibition rate on the mutant relative to wild type,Nav1.7 N1551A,58.9 % of WT
same,Inhibition rate on the mutant relative to wild type,Nav1.7 I1612A,30.6 % of WT
same,Inhibition rate on the mutant relative to wild type,Nav1.7 R1613A,57.4 % of WT
same,Effect of the mutation on antagonistic activity,Nav1.7 Y1548A,minimal impact
same,Inhibition rate on the mutant relative to wild type,Nav1.7 M1593A,57.1 % of WT
same,Effect on native Na+ current,[1],completely inhibited
same,Effect of the mutation on antagonistic activity,Nav1.7 E1545A/E1600A,inhibitory effect on WN2-R activity
